Laboratory results from US6455593B1, “Method of dynamic retardation of cell cycle kinetics to potentiate cell damage” (priority 1995, dated 2002).

Assays:
Assay in all cases: Induction of apoptosis by DEET
Type in all cases: cell-based, human
Daudi B cells = tested on: Daudi B cells
U937 cells = tested on: U937 cells
Jurkat T cells = tested on: Jurkat T cells

Measured: Concentration inducing apoptosis

CCN(CC)C(=O)c1cccc(C)c1 [DEET, N,N-Diethyl-m-toluamide]
above 0.5 mM: all assays above
